# Several values for one entry are separate records, joined by “and”; a condition that tells them apart may be missing. Equal values may be shown once. Read-outs that look alike come from different tables or passages of the source. *1 amine or outer side, *2 acyl side, *3 side chain or, on linkers, in order; H or OH if unused. Side-chain parts run from the residue outwards. [ ]: non-standard residue; d: D form. The star is where a group is joined. C20 diacid = O=C(O)CCCCCCCCCCCCCCCCCCC(=O)*; γGlu = O=C(O)[C@H](CCC(=O)[*:2])N[*:1]; εLys = N[C@@H](CCCCN[*:1])C(=O)[*:2]; pGlu = O=C1CC[C@@H](C(=O)O)N1; αMeL = CC(C)C[C@](C)(N)C(=O)O; AEEA = NCCOCCOCC(=O)O; Aib = CC(C)(N)C(=O)O
# How the values were obtained:
# [1] = test system: pre-existing antibodies (ADA) in treatment-naive normal human serum; experiment: Pre-existing reactivity (ACE assay format); type: binding; settings: ACE assay format
# Method: This assay assessed the presence of pre-existing antibodies (ADA) against the tested molecules in treatment-naive normal human serum (NHS). Diluted NHS was incubated overnight on a Pierce Streptavidin plate coated with biotinylated tested molecules. On the following day, the captured binding proteins were acid eluted, hard-coated to a Mesoscale (MSD) plate, and detected with a combination of biotin-labeled molecule and ruthenium-labeled streptavidin. If anti-drug antibodies were present, they would bind the labeled drug and the resulting signal was referred to as Tier 1 signal (expressed as electrochemiluminescence). […] The presence of pre-existing anti-drug antibodies was expressed as magnitude of the 90th percentile of Tier 2 inhibition. The 90th percentile of Tier 2 inhibition is a statistical tool to assess the magnitude of specificity of Tier 1 reactivity. This 90th percentile was used to rank molecules in terms of ADA risk.
# CD4+ T cells = experiment: T cell proliferation assay; type: cell-based, human; settings: responding donors / donors tested
# Method: This assay assessed the ability of tested antibodies or tested MAPPS peptides to activate CD4+ T cells by inducing cellular proliferation. CD8+ T cell depleted PBMC's were prepared and labeled with CFSE. Each sample was tested with media control, keyhole limpet haemocyanin (KLH; positive clinical benchmark control), tested antibodies, or tested MAPPS peptides. Cultures were incubated for 7 days. On day 7, samples were analyzed by flow cytometry.
# [2] = Pharmacokinetics in CD-1 mice, single 100 nmol/kg subcutaneous dose; type: in vivo; settings: mouse, plasma, sc, male CD-1 mice, mean
# Method: (§1) Plasma concentrations of compounds were determined by LC/MS methods. For each assay, the compound and an internal standard (IS), were extracted from 100% mouse, rat, pig, or monkey plasma (70 μL) using Isopropanol-Methanol. Two distinct layers were formed upon centrifugation with the compound and the IS located in the supernatant layer. An aliquot of the supernatant (150 μL) was transferred to a Waters Sirocco Protein Precipitation Plate. The supernatant was eluted using a positive pressure manifold. The supernatant was mixed with 100-2 Water-Formic acid (400 μL) in a pretreated Sep-Pak tC18 SPE plate and eluted to waste. The peptide and IS were eluted with Acetonitrile-Formic acid (100 μL) in 2 steps (50 μL each step). The elution (40 μL) from SPE plate was mixed with diluent solution (1.875 μL 5× invitrosol and 3.125 μL 1% formic acid in water, 80 μL). A final sample (10 μl) was loaded onto a Xselect CSH C18 IS column (3.5 μm 2.1×20 mm). The column effluent was directed into a Thermo Fisher Scientific Orbitrap (Exploris 240) mass spectrometer for detection and quantitation.
# Male CD-1 mice were administered a single subcutaneous dose (100 nmol/kg) of compound in 40 mM Tris-HCl 5% D-mannitol (pH 8) at a volume of 5 mL/kg. Blood was collected at 6, 24, 48, 96, 168, 240, 288, and 336 hours postdose for pharmacokinetic characterization.
# [3] = Pharmacokinetics in Cynomolgus monkeys, single subcutaneous or intravenous dose; type: in vivo
# Method: as §1
# Male and female Cynomolgus monkeys were administered a single subcutaneous dose or intravenous dose (183 to 190 nmol/kg) of compound in 40 mM Tris-HCl 5% D-mannitol (pH 8) at a volume of 0.5 mL/kg. Blood was collected from each animal at 0.5, 3, 6, 24, 48, 72, 96, 168, 240, 336, 408, and 504 hours postdose for pharmacokinetic characterization.
# [4] = test system: MHC-II presented peptides on human dendritic cells; experiment: MAPPS assay (MHC-Associated Peptide Proteomics); type: cell-based; settings: for peptides displayed on MHC-II complexes: human dendritic cells from normal donors; for immunogenicity compared with SEQ ID NO:54: in the MAPPs assay and/or the T cell proliferation assay
# In short: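 Peptides eluted from anti-MHC-II immunoprecipitates of day-6 DC lysates were sequenced by MS, mapped onto the parent test molecule, and scored as percentage of donors presenting each region. DCs derived from donor CD14+ cells (IL-4, GM-CSF) received test molecules on day 4, then LPS maturation on day 5.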
# [5] = both sexes, cynomolgus monkey, plasma, iv, 183 nmol/kg, single intravenous dose 183 nmol/kg, Mean
# [6] = both sexes, cynomolgus monkey, plasma, iv, 183 nmol/kg, single intravenous dose 183 nmol/kg, individual animal
# [7] = single intravenous dose 183 nmol/kg, individual animal
# [8] = single subcutaneous dose 183 nmol/kg, individual animal
# [9] = donors displaying MHC-II peptides / donors tested
# [10] = percentage of donors displaying MHC-II peptides
# [11] = both sexes, cynomolgus monkey, plasma, iv, 190 nmol/kg, single intravenous dose 190 nmol/kg, Mean
# [12] = both sexes, cynomolgus monkey, plasma, iv, 190 nmol/kg, single intravenous dose 190 nmol/kg, individual animal
# [13] = single intravenous dose 190 nmol/kg, individual animal
# [14] = single subcutaneous dose 190 nmol/kg, individual animal
substance,measurement,setting,value
"[pGlu]GSPSGIVTS[αMeL]DVPT[Aib][αMeL]LQKILEQERAEKARQQAK([γGlu-AEEA-εLys-C20 diacid])EAAEILAQV-NH2 [SEQ ID NO: 22, Pyr-GSPSGIVTS αMeL DVPT Aib αMeL LQKILEQERAEKARQQAK(γE-(2-[2-(2-Amino-ethoxy)-ethoxy]-acetyl)-ϵK-CO-(CH2)18-CO2H)EAAEILAQV-NH2]",Pre-existing Reactivity 90th percentile T2 inhibition >50 donors,[1],14.3%
same,T Cell Proliferation Assay: protein 7-10 donors with diverse MHC,CD4+ T cells,0/9
same,AUC0-inf,[2],15 µM·h
same,CL/F,[2],162 mL/day/kg
same,Cmax,[2],270 nM
same,Tmax,[2],24 h
same,half-life,[2],25.1 h
same,clearance,[3]; [5],9.89 mL/day/kg
same,half-life,[3]; [5],98.1 h
same,clearance,[3]; [6],9.41 mL/day/kg
same,half-life,[3]; [6],83.1 h
same,half-life,"[3]; both sexes, cynomolgus monkey, plasma, sc, 183 nmol/kg, single subcutaneous dose 183 nmol/kg, Mean",136 h
same,CL/F,"[3]; both sexes, cynomolgus monkey, plasma, sc, 183 nmol/kg, single subcutaneous dose 183 nmol/kg, Mean, read-out: CL/F (converted)",12.9 mL/day/kg
same,Tmax,"[3]; both sexes, cynomolgus monkey, plasma, sc, 183 nmol/kg, single subcutaneous dose 183 nmol/kg, Mean, read-out: Tmax",60 h
same,CL/F,"[3]; both sexes, cynomolgus monkey, plasma, sc, 183 nmol/kg, single subcutaneous dose 183 nmol/kg, individual animal, read-out: CL/F (converted)",12.5 mL/day/kg
same,Tmax,"[3]; both sexes, cynomolgus monkey, plasma, sc, 183 nmol/kg, single subcutaneous dose 183 nmol/kg, individual animal, read-out: Tmax",72 h
same,AUC0-inf,"[3]; both sexes, cynomolgus monkey, plasma, sc, single subcutaneous dose 183 nmol/kg, Mean, read-out: AUC0-inf",365 µM·h
same,Cmax,"[3]; both sexes, cynomolgus monkey, plasma, sc, single subcutaneous dose 183 nmol/kg, Mean, read-out: Cmax",2000 nM
same,AUC0-inf,"[3]; both sexes, cynomolgus monkey, plasma, single intravenous dose 183 nmol/kg, Mean, read-out: AUC0-inf",446 µM·h
same,C0,"[3]; both sexes, cynomolgus monkey, plasma, single intravenous dose 183 nmol/kg, Mean, read-out: C0",4740 nM
same,AUC0-inf,[3]; [7],467 µM·h and 424 µM·h
same,C0,[3]; [7],4160 nM and 5320 nM
same,CL,[3]; [7],10.3 mL/day/kg
same,T1/2,[3]; [7],113 h
same,AUC0-inf,[3]; [8],387 µM·h and 342 µM·h
same,CL/F,[3]; [8],13.2 mL/day/kg
same,Cmax,[3]; [8],1720 nM and 2280 nM
same,T1/2,[3]; [8],182 h and 90.2 h
same,Tmax,[3]; [8],48 h
same,MAPPS Assay >10 donors with diverse MHC,[4]; [9],1/10
same,peptides displayed on MHC-II complexes,[4],at least one peptide cluster on MHC-II complexes in a subset of donors
same,immunogenicity compared with SEQ ID NO:54,[4],substantial improvements in immunogenicity over a compound comprising SEQ ID NO:54
same,MAPPS Assay >10 donors with diverse MHC,[4]; [10],10%
{C20 diacid-εLys-AEEA-γGlu}-GSPSIVTS[αMeL]DVPT[Aib][αMeL]LQKILEQERAEKARQQATEAAEILAQV-NH2 [SEQ ID NO: 25],Pre-existing Reactivity 90th percentile T2 inhibition >50 donors,[1],4.5%
same,T Cell Proliferation Assay: protein 7-10 donors with diverse MHC,CD4+ T cells,0/9
same,AUC0-inf,[2],25 µM·h
same,CL/F,[2],96.2 mL/day/kg
same,Cmax,[2],366 nM
same,Tmax,[2],24 h
same,half-life,[2],32.5 h
same,clearance,[3]; [11],11.5 mL/day/kg
same,half-life,[3]; [11],113 h
same,clearance,[3]; [12],12.8 mL/day/kg
same,half-life,[3]; [12],100 h
same,half-life,"[3]; both sexes, cynomolgus monkey, plasma, sc, 190 nmol/kg, single subcutaneous dose 190 nmol/kg, Mean",199 h
same,CL/F,"[3]; both sexes, cynomolgus monkey, plasma, sc, 190 nmol/kg, single subcutaneous dose 190 nmol/kg, Mean, read-out: CL/F (converted)",12.3 mL/day/kg
same,Tmax,"[3]; both sexes, cynomolgus monkey, plasma, sc, 190 nmol/kg, single subcutaneous dose 190 nmol/kg, Mean, read-out: Tmax",24 h
same,half-life,"[3]; both sexes, cynomolgus monkey, plasma, sc, 190 nmol/kg, single subcutaneous dose 190 nmol/kg, individual animal",184 h
same,CL/F,"[3]; both sexes, cynomolgus monkey, plasma, sc, 190 nmol/kg, single subcutaneous dose 190 nmol/kg, individual animal, read-out: CL/F (converted)",14.4 mL/day/kg
same,Tmax,"[3]; both sexes, cynomolgus monkey, plasma, sc, 190 nmol/kg, single subcutaneous dose 190 nmol/kg, individual animal, read-out: Tmax",24 h
same,AUC0-inf,"[3]; both sexes, cynomolgus monkey, plasma, sc, single subcutaneous dose 190 nmol/kg, Mean, read-out: AUC0-inf",458 µM·h
same,Cmax,"[3]; both sexes, cynomolgus monkey, plasma, sc, single subcutaneous dose 190 nmol/kg, Mean, read-out: Cmax",1610 nM
same,AUC0-inf,"[3]; both sexes, cynomolgus monkey, plasma, single intravenous dose 190 nmol/kg, Mean, read-out: AUC0-inf",402 µM·h
same,C0,"[3]; both sexes, cynomolgus monkey, plasma, single intravenous dose 190 nmol/kg, Mean, read-out: C0",3500 nM
same,AUC0-inf,[3]; [13],355 µM·h and 449 µM·h
same,C0,[3]; [13],3040 nM and 3960 nM
same,CL,[3]; [13],10.1 mL/day/kg
same,T1/2,[3]; [13],126 h
same,AUC0-inf,[3]; [14],364 µM·h and 551 µM·h
same,CL/F,[3]; [14],10.2 mL/day/kg
same,Cmax,[3]; [14],1540 nM and 1680 nM
same,T1/2,[3]; [14],214 h
same,MAPPS Assay >10 donors with diverse MHC,[4]; [9],0/10
same,peptides displayed on MHC-II complexes,[4],no peptides displayed on MHC-II complexes
same,immunogenicity compared with SEQ ID NO:54,[4],substantial improvements in immunogenicity over a compound comprising SEQ ID NO:54
same,MAPPS Assay >10 donors with diverse MHC,[4]; [10],0%

# Reference: patent US20250163119A1, “COMPOUNDS FOR THE TREATMENT OF DIABETES OR OBESITY” (Eli Lilly and Company, priority 2023, published 2025)
